# Experimental data as given in ChEMBL document CHEMBL3870348, “Discovery of a new isomannide-based peptidomimetic synthetized by Ugi multicomponent reaction as human tissue kallikrein 1 inhibitor” (Bioorg Med Chem Lett, 2017).
# Calls of active or inactive are those of the source. The calls are words filed in the database; no cut-off is given here.
# Columns and labels:
# Kallikrein-1 [1] = molecular target: T1, Kallikrein-1 (Homo sapiens, UniProt P06870); test: Inhibition of recombinant human KLK1 expressed in baculovirus/insect cell expression system using Abz-KLRSSKQ-EDDnp peptide as substrate preincubated for 5 mins followed by substrate addition by FRET assay
# Target sequence in this assay (P06870 whole entry): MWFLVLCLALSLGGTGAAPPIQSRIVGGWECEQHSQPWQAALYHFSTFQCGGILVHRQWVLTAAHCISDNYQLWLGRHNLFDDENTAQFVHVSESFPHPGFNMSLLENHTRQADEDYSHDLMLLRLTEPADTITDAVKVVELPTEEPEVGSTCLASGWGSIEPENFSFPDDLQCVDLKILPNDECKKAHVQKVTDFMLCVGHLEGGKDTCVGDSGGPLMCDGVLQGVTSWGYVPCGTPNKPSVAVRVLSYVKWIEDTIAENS
# Kallikrein-1 [2] = molecular target: T1, Kallikrein-1; test: Competitive inhibition of recombinant human KLK1 expressed in baculovirus/insect cell expression system using Abz-KLRSSKQ-EDDnp peptide as substrate by Dixon plot analysis
# Target sequence in this assay (P06870 whole entry): as above
# Kallikrein-7 [3] = molecular target: T2, Kallikrein-7 (Homo sapiens, UniProt P49862); test: Inhibition of recombinant human KLK7 expressed in baculovirus/insect cell expression system using Abz-KLYSSKQ-EDDnp peptide as substrate preincubated for 5 mins followed by substrate addition by FRET assay
# Target sequence in this assay (P49862 whole entry): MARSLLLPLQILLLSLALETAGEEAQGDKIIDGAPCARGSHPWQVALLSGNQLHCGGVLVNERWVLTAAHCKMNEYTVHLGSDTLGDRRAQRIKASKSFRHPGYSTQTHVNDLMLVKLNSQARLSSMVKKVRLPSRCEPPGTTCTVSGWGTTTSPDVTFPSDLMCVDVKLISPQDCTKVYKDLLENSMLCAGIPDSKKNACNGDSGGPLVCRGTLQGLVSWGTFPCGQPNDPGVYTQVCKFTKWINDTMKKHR
# Kallikrein-1 [4] = molecular target: T1, Kallikrein-1; test: Reversible competitive inhibition of recombinant human KLK1 expressed in baculovirus/insect cell expression system using Abz-KLRSSKQ-EDDnp peptide as substrate at 2 to 8 uM by Lineweaver-Burk plot analysis
# Target sequence in this assay (P06870 25-262 limits assumed): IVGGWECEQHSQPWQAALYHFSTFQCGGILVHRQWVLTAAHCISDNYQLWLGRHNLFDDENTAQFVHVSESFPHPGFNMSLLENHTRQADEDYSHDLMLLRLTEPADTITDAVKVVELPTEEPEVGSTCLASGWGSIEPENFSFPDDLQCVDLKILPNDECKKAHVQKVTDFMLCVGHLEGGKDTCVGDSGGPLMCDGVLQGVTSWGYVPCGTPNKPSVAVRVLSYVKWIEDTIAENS
# Kallikrein-1 [5] = molecular target: T1, Kallikrein-1; test: Inhibition of recombinant human KLK1 expressed in baculovirus/insect cell expression system at 100 uM using Abz-KLRSSKQ-EDDnp peptide as substrate preincubated for 5 mins followed by substrate addition by FRET assay
# Target sequence in this assay (P06870 25-262 limits assumed): as above
# Kallikrein-7 [6] = molecular target: T2, Kallikrein-7; test: Inhibition of recombinant human KLK7 expressed in baculovirus/insect cell expression system at 100 uM using Abz-KLYSSKQ-EDDnp peptide as substrate preincubated for 5 mins followed by substrate addition by FRET assay
# Target sequence in this assay (P49862 30-253 limits assumed): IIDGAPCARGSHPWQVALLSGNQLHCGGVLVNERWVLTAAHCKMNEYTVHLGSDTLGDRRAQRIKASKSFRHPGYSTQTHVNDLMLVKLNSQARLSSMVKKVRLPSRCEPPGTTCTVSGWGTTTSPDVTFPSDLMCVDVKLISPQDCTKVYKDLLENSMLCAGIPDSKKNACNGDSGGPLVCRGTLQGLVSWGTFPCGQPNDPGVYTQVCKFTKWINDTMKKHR
SMILES,IC50 (Kallikrein-1 [1]),Ki (Kallikrein-1 [2]),IC50 (Kallikrein-7 [3]),inhibition (Kallikrein-1 [4]),inhibition (Kallikrein-1 [5]),inhibition (Kallikrein-7 [6])
CC(C)(C(=O)NC1CCCCC1)N(C(=O)Cc1ccc(O)cc1)[C@H]1CO[C@H]2[C@@H]1OC[C@H]2OCc1ccccc1,4 µM,3.1 µM,249 µM,Active,Active,Active
CC(C)(C(=O)NC1CCCCC1)N(C(=O)Cc1ccc(O)cc1)[C@H]1CO[C@H]2[C@@H]1OC[C@@H]2N(C(=O)Cc1ccc(O)cc1)C(C)(C)C(=O)NC1CCCCC1,12.6 µM,,133 µM,,Active,Active
CC(C)(C(=O)NC1CCCCC1)N(C(=O)c1ccccc1)[C@H]1CO[C@H]2[C@@H]1OC[C@H]2OCc1ccccc1,400 µM,,572 µM,,Active,Active
CC(C)(C(=O)NC1CCCCC1)N(C(=O)Cc1ccc(F)cc1)[C@H]1CO[C@H]2[C@@H]1OC[C@H]2OCc1ccccc1,221 µM,,185 µM,,Active,Active
COc1ccc(CC(=O)N([C@H]2CO[C@H]3[C@@H]2OC[C@H]3OCc2ccccc2)C(C)(C)C(=O)NC2CCCCC2)cc1,125 µM,,272 µM,,Active,Active
